Measurements as given in paper PMC3060605 (Nature Communications, 2010).

Biological target: N1 (A/HongKong/156/97 (H5N1)) sialidase (Influenza A virus, UniProt Q9W7Y7)
Test: biochemical

Sequence of N1 (A/HongKong/156/97 (H5N1)) sialidase (Q9W7Y7 whole entry, looked up): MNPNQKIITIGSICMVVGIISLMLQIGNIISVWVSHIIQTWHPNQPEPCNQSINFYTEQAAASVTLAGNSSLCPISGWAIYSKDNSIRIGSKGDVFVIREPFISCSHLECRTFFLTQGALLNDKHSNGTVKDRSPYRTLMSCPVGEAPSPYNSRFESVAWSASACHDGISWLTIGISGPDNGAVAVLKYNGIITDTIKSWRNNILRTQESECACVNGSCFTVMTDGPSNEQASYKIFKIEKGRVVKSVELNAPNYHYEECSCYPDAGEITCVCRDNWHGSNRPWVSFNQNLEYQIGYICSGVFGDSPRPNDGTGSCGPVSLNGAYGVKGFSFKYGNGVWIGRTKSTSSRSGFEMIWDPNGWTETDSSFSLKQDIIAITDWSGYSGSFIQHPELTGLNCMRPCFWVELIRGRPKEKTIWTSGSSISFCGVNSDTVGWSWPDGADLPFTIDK

CC(=O)N[C@H]1[C@H]([C@H](O)[C@H](O)CO)OC(C(=O)O)=C[C@@H]1N=C(N)N [Compound 1, zanamivir]
Ki: 170 pM
